In patent US9724537B2, “Abnormal electrical conduction blocking apparatus using photodynamic therapy (PDT)” (Keio University, priority 2006, dated 2017):
“And” between values parts separate entries of the source, which are not always exact repeats. Equal entries are not always repeated.

System: cultured cardiac muscle cells derived from an SD rat
Assay: Changes in intracellular Ca^2+ concentration during PDT (Fluo-4AM)
Type: cell-based
Method: Intracellular Ca^2+ concentration changes in cells on day 1 after seeding were measured with the four protocols described later. Cultured cardiac muscle cells derived from an SD rat were used. As a medium for cell culture, D-MEM/F12+10% FBS was used. Before subjected to the experiment, cardiac muscle cells in suspension at 1.6×10^5 cells/ml were seeded on a 24-well plate with a glass bottom at 0.5 ml/well (8.0×10^4 cells/well) and cultured in an incubator (37° C., 5% CO2) for one day.
Further, MEM+10% FBS containing 2.2 mM Ca^2+ was used as a normal medium, and SMEM+10% FBS containing 364 μM Ca^2+ was used as a Ca^2+-free medium.
Intracellular Ca^2+ concentrations were measured using Fluo-4AM (Molecular Probe). 55 μl of DMSO (Dojindo Laboratories, pure solvent for fluorescence analysis) was added to 50 μg of Fluo-4AM, 10 μl of this mixture was added to 1 ml of a medium for measurement (normal medium or Ca^2+-free medium) at 8 μM, and cardiac muscle cells were brought into loading for 30 min. Fluo4 was excited with Ar laser (wavelength, 488 nm), and a fluorescence image at 510 to 560 nm was obtained with a CCD camera (Nippon Roper Co., Ltd., Retiga 2000R). 10 photos were taken with an exposure time of 10 s, and then PDT was performed by irradiation with a semiconductor laser beam (peak wavelength, 670.8 nm; power, 150 mW/cm^2; continuous light; total energy density, 5 or 10 J/cm^2), and a total of 40 photos (for approx. 408 s) were continuously taken during and after PDT. The image analysis was performed using Image J, an image analysis software, and changes in intracellular cumulative fluorescence on each slide were calculated. Assuming the initial cumulative fluorescence F0 as 1, fluorescence changes were calculated by F/F0. Further, cells were incubated at temperature of 37° C. using a hot plate (Tokai Hit) during observation.
Protocol 1 (Extracellular Distribution of Talaporfin Sodium, Extracellular Normal Ca^2+ Concentration)
Fluo-4AM (normal medium solution) is loaded with each well at room temperature for 30 min, then talaporfin sodium (normal medium) adjusted beforehand to various concentrations is added at 0.5 ml/well, and observation is performed immediately after addition.
Protocol 2 (Intracellular Distribution of Talaporfin Sodium, Extracellular Normal Ca^2+ Concentration)
Fluo-4AM (normal medium solution) is loaded with each well at room temperature for 30 min, then talaporfin sodium (normal medium) adjusted beforehand to various concentrations is added at 0.5 ml/well, and observation is performed after the medium is replaced with a normal medium after 30 min of loading.
Protocol 3 (Extracellular Distribution of Talaporfin Sodium, No Extracellular Ca^2+) […]

Question: Which “cell morphology during and after PDT” value (FIG. 23) does the source give for `C=Cc1c(C)c2cc3nc(c(CC(=O)N[C@@H](CC(=O)O)C(=O)O)c4[nH]c(cc5nc(cc1[nH]2)C(C)=C5CC)c(C)c4C(=O)O)[C@@H](CCC(=O)O)[C@@H]3C` [talaporfin sodium, mono-L-aspartyl chlorine 6] here?
Answer: The value was 1) swelling of the cell itself and 2) growth of “bobble” were observed and Cell morphology did not virtually change after PDT.

Question: What about the “change in intracellular Ca^2+ concentration during PDT” value (no extracellular Ca^2+, 30 μg/ml, 10 J/cm2) of the same compound?
Answer: Its value is “the intracellular Ca^2+ concentrations hardly changed”.

Question: What about the “change in intracellular Ca^2+ concentration during PDT” value (normal extracellular Ca^2+ concentration) of the same compound?
Answer: The value was “Rapid increases in the intracellular Ca^2+ concentrations were observed immediately after performing PDT”.

Question: What about the “change in intracellular Ca^2+ concentration, photosensitizer outside vs inside the cell” value (normal extracellular Ca^2+, 0 min loading vs 30 min loading) of the same compound?
Answer: Its value is “rapid changes in the Ca^2+ concentration were confirmed when the photosensitizer exists only outside the cell”.
